# What was measured:
# ABUTH [1] = experiment: Post-emergence action against ABUTH; format: in vivo, Abutilon theophrasti; settings: Abutilon theophrasti, 504 h; post-emergence, dosage 80 g/ha, visual assessment about 3 weeks after treatment vs untreated controls; read-out: Post-emergence action against ABUTH (herbicidal action in percent)
# Procedure, shortened: (§1)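 Weeds grown in sandy loam in greenhouse, treated at one-leaf stage (2–3 weeks after sowing) with WP or EC formulations sprayed as aqueous suspension/emulsion at 600 to […] water with 0.2% wetting agent. Visual rating after about 3 weeks versus untreated controls, as % herbicidal action (100% = plants dead, 0% = like control).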
# CYPES [2] = experiment: Pre-emergence action against CYPES; format: in vivo, Cyperus esculentus; settings: Cyperus esculentus, 504 h; pre-emergence, dosage 320 g/ha, scored visually after 3 weeks vs untreated controls; read-out: Pre-emergence action against CYPES (herbicidal activity)
# Procedure, shortened: (§2)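 Seeds sown in sandy loam in wood-fiber pots and covered with soil. Greenhouse growth; visual damage scored after 3 weeks versus untreated controls (100% = dead, 0% = like control).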
# ALOMY [3] = experiment: Post-emergence action against ALOMY; format: in vivo, Alopecurus myosuroides; settings: Alopecurus myosuroides, 504 h; Dosage 80 g/ha, post-emergence
# Procedure, shortened: as §1
# STEME = experiment: Post-emergence action against STEME; format: in vivo, Stellaria media; settings: Stellaria media, 504 h; post-emergence, dosage 80 g/ha
# Procedure, shortened: as §1
# SETVI [4] = experiment: Post-emergence action against SETVI; format: in vivo, Setaria viridis; settings: Setaria viridis, 504 h; post-emergence, dosage 80 g/ha, visual assessment about 3 weeks after treatment vs untreated controls; read-out: Post-emergence action against SETVI (herbicidal action in percent)
# Procedure, shortened: as §1
# MATIN [5] = experiment: Post-emergence action against MATIN; format: in vivo, Matricaria inodora; settings: Tripleurospermum inodorum, 504 h; post-emergence, dosage 80 g/ha, visual assessment about 3 weeks after treatment vs untreated controls; read-out: Post-emergence action against MATIN (herbicidal action in percent)
# Procedure, shortened: as §1
# AVEFA [6] = experiment: Pre-emergence action against AVEFA; format: in vivo, Avena fatua; settings: Avena fatua, 504 h, dosage 320 g/ha, scored visually after 3 weeks vs untreated controls, read-out: Pre-emergence action against AVEFA (herbicidal activity)
# Procedure, shortened: as §2
# ALOMY [7] = experiment: Pre-emergence action against ALOMY; format: in vivo, Alopecurus myosuroides; settings: Alopecurus myosuroides, 504 h; dosage 320 g/ha; pre-emergence; scored visually after 3 weeks vs untreated controls; 100% = plants have died, 0% = like control plants; read-out: Pre-emergence action against ALOMY (herbicidal activity in percent)
# Procedure, shortened: as §2
# PHBPU [8] = experiment: Pre-emergence action against PHBPU; format: in vivo, Pharbitis purpurea; settings: Ipomoea purpurea, 504 h; Dosage 320 g/ha, pre-emergence
# Procedure, shortened: as §2
# AVEFA [9] = experiment: Post-emergence action against AVEFA; format: in vivo, Avena fatua; settings: Avena fatua, 504 h; post-emergence, dosage 80 g/ha, visual assessment about 3 weeks after treatment vs untreated controls; read-out: Post-emergence action against AVEFA (herbicidal action in percent)
# Procedure, shortened: as §1
# MATIN [10] = experiment: Pre-emergence action against MATIN; format: in vivo, Matricaria inodora; settings: Tripleurospermum inodorum, 504 h; Dosage 320 g/ha, pre-emergence
# Procedure, shortened: as §2
# VIOTR [11] = experiment: Post-emergence action against VIOTR; format: in vivo, Viola tricolor; settings: Viola tricolor, 504 h; post-emergence, dosage 80 g/ha
# Procedure, shortened: as §1
# SETVI [12] = experiment: Pre-emergence action against SETVI; format: in vivo, Setaria viridis; settings: Setaria viridis, 504 h; pre-emergence, dosage 320 g/ha, scored visually after 3 weeks vs untreated controls; read-out: SETVI (Table B8, pre-emergence herbicidal activity)
# Procedure, shortened: as §2
# AMARE [13] = experiment: Pre-emergence action against AMARE; format: in vivo, Amaranthus retroflexus; settings: Amaranthus retroflexus, 504 h; pre-emergence, dosage 320 g/ha, scored visually after 3 weeks vs untreated controls; read-out: Pre-emergence action against AMARE (herbicidal activity)
# Procedure, shortened: as §2
# CYPES [14] = experiment: Post-emergence action against CYPES; format: in vivo, Cyperus esculentus; settings: Cyperus esculentus, 504 h; post-emergence, dosage 80 g/ha, visual assessment about 3 weeks after treatment vs untreated controls; read-out: Post-emergence action against CYPES (herbicidal action in percent)
# Procedure, shortened: as §1
# PHBPU [15] = experiment: Post-emergence action against PHBPU; format: in vivo, Pharbitis purpurea; settings: Ipomoea purpurea, 504 h; post-emergence, dosage 80 g/ha
# Procedure, shortened: as §1
# ECHCG [16] = experiment: Post-emergence action against ECHCG; format: in vivo, Echinochloa crus-galli; settings: Echinochloa crus-galli, 504 h; post-emergence, dosage 80 g/ha, visual assessment about 3 weeks after treatment vs untreated controls; read-out: Post-emergence action against ECHCG (herbicidal action in percent)
# Procedure, shortened: as §1
# ECHCG [17] = experiment: Pre-emergence action against ECHCG; format: in vivo, Echinochloa crus-galli; settings: Echinochloa crus-galli, 504 h; pre-emergence, dosage 320 g/ha, scored visually after 3 weeks vs untreated controls; read-out: Pre-emergence action against ECHCG (herbicidal activity)
# Procedure, shortened: as §2
# LOLMU = experiment: Post-emergence action against LOLMU; format: in vivo, Lolium multiflorum; settings: Lolium multiflorum, 504 h, dosage 80 g/ha, visual assessment about 3 weeks after treatment vs untreated controls, read-out: Post-emergence action against LOLMU (herbicidal action in percent)
# Experimental: Seeds of monocotyledonous and dicotyledonous weed and crop plants are laid out in sandy loam soil in wood-fiber pots, covered with soil and cultivated in a greenhouse under good growth conditions. 2 to 3 weeks after sowing, the test plants are treated at the one-leaf stage. The compounds of the invention, formulated in the form of wettable powders (WP) or as emulsion concentrates (EC), are then sprayed onto the green parts of the plants in the form of an aqueous suspension or emulsion at a water application rate equating to […], with addition of 0.2% wetting agent. After the test plants have been left to stand in the greenhouse under optimal growth conditions for about 3 weeks, the action of the preparations is assessed visually in comparison to untreated controls (herbicidal action in percent (%): 100% activity=the plants have died, 0% activity=like control plants). […] At the same time, inventive compounds leave Gramineae crops such as barley, wheat, rye, millet/Sorghum, corn or rice virtually undamaged when applied post-emergence, even at high active ingredient dosages. In addition, some substances are also harmless to dicotyledonous crops such as soya, cotton, oilseed rape, sugar beet or potatoes. Some of the compounds according to the invention have high selectivity and are therefore suitable for controlling unwanted vegetation in agricultural crops by the post-emergence method. The data of Tables B18 to B34 below illustrate, in an exemplary manner, the […] herbicidal action of the compounds according to the invention, the herbicidal activity being stated in percent.
# VIOTR [18] = experiment: Pre-emergence action against VIOTR; format: in vivo, Viola tricolor; settings: Viola tricolor, 504 h; Dosage 320 g/ha, pre-emergence
# Procedure, shortened: as §2
# ABUTH [19] = experiment: Pre-emergence action against ABUTH; format: in vivo, Abutilon theophrasti; settings: Abutilon theophrasti, 504 h; pre-emergence, dosage 320 g/ha, scored visually after 3 weeks vs untreated controls; read-out: Pre-emergence action against ABUTH (herbicidal activity)
# Procedure, shortened: as §2
# AMARE [20] = experiment: Post-emergence action against AMARE; format: in vivo, Amaranthus retroflexus; settings: Amaranthus retroflexus, 504 h; post-emergence, dosage 80 g/ha, visual assessment about 3 weeks after treatment vs untreated controls; read-out: Post-emergence action against AMARE (herbicidal action in percent)
# Procedure, shortened: as §1
# VERPE = experiment: Post-emergence action against VERPE; format: in vivo, Veronica persica; settings: Veronica persica, 504 h, dosage 80 g/ha
# Procedure, shortened: as §1
structure (smiles),measurement,setting,value
"Cc1c(C(=O)Nc2nnnn2C)ccc(C(F)(F)F)c1C(=O)C1CC1 [1-18, 3-(cyclopropylcarbonyl)-2-methyl-N-(1-methyl-1H-tetrazol-5-yl)-4-(trifluoromethyl)benzamide]",pest or weed control at 80 g/ha,ABUTH [1],80%
same,pest or weed control at 320 g/ha,CYPES [2],90%
same,pest or weed control at 80 g/ha,ALOMY [3],100%
same,pest or weed control at 80 g/ha,STEME,100%
same,pest or weed control at 80 g/ha,SETVI [4],100%
same,pest or weed control at 80 g/ha,MATIN [5],100%
same,pest or weed control at 320 g/ha,AVEFA [6],100%
same,pest or weed control at 320 g/ha,ALOMY [7],100%
same,pest or weed control at 320 g/ha,PHBPU [8],90%
same,pest or weed control at 80 g/ha,AVEFA [9],100%
same,pest or weed control at 320 g/ha,MATIN [10],100%
same,pest or weed control at 80 g/ha,VIOTR [11],100%
same,pest or weed control at 320 g/ha,SETVI [12],100%
same,pest or weed control at 320 g/ha,AMARE [13],100%
same,pest or weed control at 80 g/ha,CYPES [14],90%
same,pest or weed control at 80 g/ha,PHBPU [15],100%
same,pest or weed control at 80 g/ha,ECHCG [16],90%
same,pest or weed control at 320 g/ha,ECHCG [17],100%
same,pest or weed control at 80 g/ha,LOLMU,90%
same,pest or weed control at 320 g/ha,VIOTR [18],100%
same,pest or weed control at 320 g/ha,ABUTH [19],100%
same,pest or weed control at 80 g/ha,AMARE [20],90%
same,pest or weed control at 80 g/ha,VERPE,100%
